Experiment [1] concerns XW129. Kind of experiment: Batch ethanol fermentation in AM1 medium with furfural. The note with it: 15 mM furfural, AM1 mineral salts medium, 100 g/L xylose. It counts as cell-based, Escherichia coli. Here is the method: (§1) FIGS. 4A-C. Comparison of batch fermentations for the parent LY180 and the plasmid-free, furfural-resistant strain XW129. […] For A (cell mass) and B (ethanol and furfural), fermentations were conducted in mineral salt medium AM1 (100 g/L xylose and 15 mM furfural). Control fermentations without furfural were also included. Fermentations (C) were also conducted using hemicellulose hydrolysate containing 36 g/L total sugar, supplemented with AM1 nutrients and 0.5 mM sodium metabisulfite. Data represent averages of at least 2 experiments with standard deviations.
(§2) Ethanol fermentations with xylose were carried out as previously described (17, 22), with and without furfural. For succinate production from xylose, seed pre-cultures of strains were grown in sealed culture tubes containing AM1 medium (20 g/L xylose, 50 mM KHCO3 and 100 mM MOPS). After incubation for 16 h, pre-inocula were diluted into 500-ml fermentation vessels containing 300 ml AM1 media (100 g/L xylose, 1 mM betaine and 100 mM KHCO3) at an initial density of 6.6 mg dry cell weight. After 24 h growth, these seed cultures were used to provide starting inocula for batch fermentations (AM1 medium, 100 g/L xylose and 100 mM KHCO3). Fermentations were maintained at pH 7.0 by automatic addition of base containing additional CO2 (2.4 M potassium carbonate in 1.2 M potassium hydroxide) as previously described (27). Quantitative analyses of sugars, ethanol, furfural, and succinate were as previously described (17, 27, 38).

Experiment [2] deals with LY180. Described as above. Conditions: 15 mM furfural, AM1 mineral salts medium, 100 g/L xylose. It counts as cell-based, Escherichia coli. Here is the method: as §1, §2
The test system of experiment [3] is XW055. Kind of experiment: Furfural tolerance in tube cultures. In kind it is cell-based. The note with it: Escherichia coli, strain XW055, AM1 medium, 50 g/L xylose, 48 h, read-out: minimal inhibitory concentration of furfural. Here is the method: (§3) Furfural toxicity was measured in tube cultures (13 mm by 100 mm) as previously described for ethanol strains (17, 22). For succinate strains, tubes contained 4 ml of AM1 medium with 50 g/L xylose, 50 mM KHCO3, and 100 mM MOPS as a buffer. Tubes were inoculated with starting cell density of 44 mg/L. Cell mass was measured at 550 nm after incubation for 48 h (37° C.).

In experiment [4] the test system is XW120. Kind of experiment: Furfural tolerance in tube cultures. In kind it is cell-based. The note with it: Escherichia coli, 48 h, read-out: minimal inhibitory concentration of furfural. The procedure: as §3
The subject of experiment [5] is XW136. In words: Furfural tolerance in tube cultures. It counts as cell-based, Escherichia coli. The note with it: strain XW136 (XW120 with adhE::fucO), AM1 medium, 50 g/L xylose, 48 h. Here is the method: as §3

In brackets after ≈: the same amount, converted by molar mass.

With `O=Cc1ccco1` [furfural], in experiment [1], the delay of growth came out at 24 h and the “extension of time required to complete fermentation” value is recorded as 6 h. The growth and fermentation result in experiment [2] was “completely blocked”. Also, the MIC in experiment [3] was 7.5 mM (≈ 721 µg/mL). Besides, the MIC in experiment [4] came to 15 mM (≈ 1440 µg/mL). The molecule also yielded a furfural tolerance in experiment [5] of 17.5 mM.

The record behind these values is patent US20150299670A1, “COMBINING GENETIC TRAITS FOR FURFURAL TOLERANCE” (priority 2012, published 2015).
